Experimental data as given in publication PMC5708362, “A systematic analysis of atomic protein–ligand interactions in the PDB” (MedChemComm, 2017).

How the values were obtained:
human factor Xa = experiment: factor Xa inhibition, ammonium methylation series (cation–π); assay type: biochemical; settings: trimethylated ammonium 17 vs tert-butyl analog 15
thrombin = system: thrombin; parameters: method as in PMID 20148533; settings: thrombin inhibitors; cited from earlier work
human sEH = system: human sEH; parameters: method as in PMID 19746975; settings: human sEH inhibitors; cited from earlier work
human EGFR [1] = experiment: EGFR inhibition (salt bridge pair); assay type: biochemical; settings: 9 (carbon in place of terminal N,N-dimethylamino nitrogen) vs 10
human EGFR [2] = system: human EGFR; parameters: method as in PMID 23611691; settings: human EGFR inhibitors; cited from earlier work

| Compound | IC50 (human sEH) [nM] | IC50 (human EGFR [2]) [nM] | further results |
| --- | --- | --- | --- |
| C[N+](C)(C)CCCN1C(=O)[C@@H]2[C@H](C1=O)[C@H](c1cc(-c3ccc(Cl)s3)on1)N1CCC[C@@H]21 (racemic) [(±)-17] |  |  | fold increase in potency (human factor Xa): 60 fold |
| O=C(NCc1cccc(Cl)c1)[C@@H]1CCCN1C(=O)CCc1ccccc1 [compound 3] |  |  | IC50 (thrombin): 94300 nM |
| O=C(NCCCc1ccccc1)c1cccnc1 [compound 5] | 700 |  |  |
| CC(C)CCCC(=O)Nc1cccc(-c2c(-c3ccccc3)oc3ncnc(N[C@H](CO)c4ccccc4)c23)c1 [compound 9] |  | > 25000 | potency reduced by fold (human EGFR [1]): more than 800 fold |
| CN(C)CCCC(=O)Nc1cccc(-c2c(-c3ccccc3)oc3ncnc(N[C@H](CO)c4ccccc4)c23)c1 [compound 10] |  | 29 |  |
